The values below come from US8598314B2 (priority 2007, dated 2013).

As usually defined, the fraction remaining is what is left of the initial amount, in per cent. The term IC50 denotes the midpoint of a concentration-inhibition curve.

“Also recorded” adds a separate entry of the source.

One series concerns NIH/Swiss mice. In words: Oral glucose tolerance test (OGTT), glucose lowering. It counts as in vivo. The settings on record: IP injection, 2 hour fasted NIH/Swiss mice, FIGS. 5 and 6. The procedure:
. Test compounds were injected IP (t=0 min) immediately following baseline measurements of 2 hour fasted NIH/Swiss mice. Blood samples were taken at 60, 120, and 180 minutes after injection. In some assays, samples were also taken at 240 minutes after the injection. Blood glucose was measured with a One-Touch® Ultra® glucose meter (LifeScan, Inc., Milpitas, Calif.). […].
The tests were performed as described in Example 5.

Another series is described as follows: in vitro. The settings on record: human, kidney or brush border membranes, pH 7.4.
Series [1] relates to Dahl salt-sensitive (DSS) male rats. Nature of the series: Congestive heart failure (CHF) in vivo assay. To be noted: 10 μg/kg/day subcutaneous infusion, high-salt diet.
Protocol: In this assay, Dahl salt-sensitive (DSS) male rats were weaned at 21 days of age, maintained on a low-salt (LS) diet (0.2% NaCl) for 2 weeks. Rats were anesthetized with ketamine/xylazine (50 mg/kg/10 mg/kg, IP) and telemetry transmitters (Data Sciences, Inc.) were inserted to the aortic artery when rats were at 5 weeks of age. After surgery, the rats were allowed 10 days to recuperate before their BP (systolic and diastolic pressures) was recorded.
HS control animals (n=10 rats) were administered vehicle (50% DMSO) and fed HS in the same manner. LS control animals (n=5 rats) were maintained on the LS diet.
For a further series, the target named is T1, ACE from rabbit lung (Oryctolagus cuniculus, UniProt P12822).
T1 construct: ACE from rabbit lung; purchased Sigma Chemical Co; host or cells: rabbit lung tissue
T1 sequence (P12822 34-1310): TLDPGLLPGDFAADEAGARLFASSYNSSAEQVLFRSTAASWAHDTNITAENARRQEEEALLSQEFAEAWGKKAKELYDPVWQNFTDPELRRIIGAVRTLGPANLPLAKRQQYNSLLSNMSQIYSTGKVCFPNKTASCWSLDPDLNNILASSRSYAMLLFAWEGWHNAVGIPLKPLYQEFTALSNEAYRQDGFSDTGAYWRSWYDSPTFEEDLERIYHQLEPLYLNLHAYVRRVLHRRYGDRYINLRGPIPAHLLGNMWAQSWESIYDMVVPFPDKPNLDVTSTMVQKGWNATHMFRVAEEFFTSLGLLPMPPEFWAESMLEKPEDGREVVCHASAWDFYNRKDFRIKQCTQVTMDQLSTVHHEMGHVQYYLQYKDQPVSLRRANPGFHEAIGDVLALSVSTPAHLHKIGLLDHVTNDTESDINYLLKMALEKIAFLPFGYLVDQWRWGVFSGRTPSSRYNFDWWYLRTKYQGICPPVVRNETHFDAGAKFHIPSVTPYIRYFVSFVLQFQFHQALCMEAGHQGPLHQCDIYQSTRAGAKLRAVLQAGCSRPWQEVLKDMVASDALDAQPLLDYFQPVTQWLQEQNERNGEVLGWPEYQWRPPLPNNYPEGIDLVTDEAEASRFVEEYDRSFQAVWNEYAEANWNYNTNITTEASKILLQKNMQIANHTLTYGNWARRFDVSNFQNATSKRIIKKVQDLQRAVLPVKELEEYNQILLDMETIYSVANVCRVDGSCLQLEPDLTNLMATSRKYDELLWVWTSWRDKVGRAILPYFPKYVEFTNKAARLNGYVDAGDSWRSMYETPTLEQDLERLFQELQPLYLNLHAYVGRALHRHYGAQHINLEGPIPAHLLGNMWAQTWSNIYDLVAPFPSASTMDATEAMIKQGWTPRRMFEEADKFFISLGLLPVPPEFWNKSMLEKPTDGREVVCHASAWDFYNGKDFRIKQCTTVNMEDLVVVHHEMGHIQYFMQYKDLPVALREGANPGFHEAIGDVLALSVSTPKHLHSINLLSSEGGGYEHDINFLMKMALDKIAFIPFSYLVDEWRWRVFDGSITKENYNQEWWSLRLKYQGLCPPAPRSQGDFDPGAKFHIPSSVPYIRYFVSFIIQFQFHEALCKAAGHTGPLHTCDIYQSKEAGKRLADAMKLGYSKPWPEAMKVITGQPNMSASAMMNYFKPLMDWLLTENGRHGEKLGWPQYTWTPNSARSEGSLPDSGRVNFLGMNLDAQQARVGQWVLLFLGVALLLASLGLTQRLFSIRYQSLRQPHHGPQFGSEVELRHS
In words: ACE inhibition assay. It counts as biochemical. The procedure:
Peptide-ACE peptidase inhibitor conjugate compounds were assessed in an ACE inhibition assay using purified ACE enzyme and chromogenic substrates. An ACE stock solution was prepared by dissolving 0.1 unit of enzyme (ACE from rabbit lung, Sigma Chemical Co., St. Louis, Mo.) in 0.640 mL of HEPES buffer (0.1 M, pH=8). A 2 mM stock solution of substrate (N-benzyloxycarbonyl-Phe-His-Leu-OH) dissolved in methanol. The ACE inhibitor compounds were dissolved in phosphate buffer (0.1 M, pH=8) at concentrations of 0.0, 1, 10, 20, 60 and 100 μM. For the inhibition assay, six 2 mL microcentrifuge tubes were prepared containing 1.45 mL of phosphate buffer pH=8, 0.05 mL of 10% NaCl and 0.015 mL of substrate solution. To each microcentrifuge tube was added 0.015 mL of one of the ACE inhibitor compound's stock solutions. The solutions were heated at 37° C. for about 5 minutes. The reaction was started by the addition of 5 μL of the ACE stock solution to each tube mixture (30 seconds in between). The reaction mixtures were incubated at 37° C. After 5 min, 10 min, 30 min and 60 min., aliquots of 100 μL were taken from each tube (each sample was taken in intervals of 30 seconds). Tubes containing the 100 μL sample were floated in a boiling water bath for 5 min. and then cooled. The reaction samples were then treated with 20 μL of 2M NaOH and 20 μL of 0.1% phthaldialdehyde solution. The tubes were shaken for 4 minutes and 10 μL of 6 M HCl were added. […] Initial rates were determined from linear portions of product release curves. Starting substrate concentration in all assays was 20 μM. Apparent binding constants (Kd^app or Ki^app) of inhibitors to ACE were determined by fitting inhibition curves (initial rate vs. inhibitor concentration) to equation:
[formula] where v0 is reaction rate in the absence of inhibitor and [I]-inhibitor concentration. Fits were done by least-squares method using KaleidaGraph 3.6 (Synergy Software, Reading Pa.).

The next series has as its system recombinant DPP-IV. In words: recombinant DPP-IV in assay buffer (25 mM Tris-HCl, 140 mM NaCl, 10 mM KCl, pH 7.4). The settings on record: room temperature, up to 15 hours.

Protocol for in vitro: The tubes were incubated in VorTemp 56™ (Eurotech Labs, UK) at 37° C. vortexed at 500 RPM. At time points of 0, 1, 2, 3, 4, and 5 hours, 200 μl STOP solution (50% ACN, 1% formic acid) was added to a given tube, and the samples were allowed to incubate until the end of the experiment. The samples were collected after 5 hours, centrifuged, and 200 μl of the supernatants were transferred into mass spectrometry vials. The intensities of the mother ions in each vial were analyzed with API 150EX™ mass spectrometer (Applied Biosystems, Foster City, Calif.) and quantified using the ANALYST™ program.
The hKBBM assay was also performed in the presence of valinepyrrolidide, a DPP-IV inhibitor.

On to `CC[C@H](C)[C@H](NC(=O)[C@H](Cc1ccccc1)NC(=O)[C@H](CCC(=O)O)NC(=O)[C@H](CCCCN)NC(=O)[C@H](C)NC(=O)[C@H](C)NC(=O)[C@H](CCC(N)=O)NC(=O)CNC(=O)[C@H](CCC(=O)O)NC(=O)[C@H](CC(C)C)NC(=O)[C@H](Cc1ccc(O)cc1)NC(=O)[C@H](CO)NC(=O)[C@H](CO)NC(=O)[C@@H](NC(=O)[C@H](CC(=O)O)NC(=O)[C@H](CO)NC(=O)[C@@H](NC(=O)[C@H](Cc1ccccc1)NC(=O)[C@@H](NC(=O)CNC(=O)[C@H](CCC(=O)O)NC(=O)[C@H](C)NC(=O)[C@H](Cc1c[nH]cn1)NC(=O)COCCOCCNC(=O)[C@@H]1CCCN1C(=O)[C@H](C)NC(CCc1ccccc1)C(=O)O)[C@@H](C)O)[C@@H](C)O)C(C)C)C(=O)N[C@@H](C)C(=O)N[C@@H](Cc1c[nH]c2ccccc12)C(=O)N[C@@H](CC(C)C)C(=O)N[C@H](C(=O)N[C@@H](CCCCN)C(=O)NCC(=O)N[C@@H](CCCNC(=N)N)C(N)=O)C(C)C` (stereo partly drawn) [Compound 4983, (R,S)-1-[N^2-(1-carboxy-3-phenylpropyl)-L-ala]-L-pro-8-amino-3,6-dioxaoctanoyl-GLP-1-(7-36) amide], for which the “glucose lowering in OGTT (in words)” value with NIH/Swiss mice is listed as “enhance glucose-lowering action compared to GLP-1”. Besides, the share remaining at 4 h in “in vitro” is greater than 80%.
For `CC[C@H](C)[C@H](NC(=O)[C@H](Cc1ccccc1)NC(=O)[C@H](CCC(=O)O)NC(=O)[C@H](CCCCN)NC(=O)[C@H](C)NC(=O)[C@H](C)NC(=O)[C@H](CCC(N)=O)NC(=O)CNC(=O)[C@H](CCC(=O)O)NC(=O)[C@H](CC(C)C)NC(=O)[C@H](Cc1ccc(O)cc1)NC(=O)[C@H](CO)NC(=O)[C@H](CO)NC(=O)[C@@H](NC(=O)[C@H](CC(=O)O)NC(=O)[C@H](CO)NC(=O)[C@@H](NC(=O)[C@H](Cc1ccccc1)NC(=O)[C@@H](NC(=O)CNC(=O)[C@H](CCC(=O)O)NC(=O)[C@H](C)NC(=O)[C@H](Cc1c[nH]cn1)NC(=O)COCCOCCNC(=O)COCCOCCNC(=O)[C@@H]1CCCN1C(=O)[C@H](C)NC(CCc1ccccc1)C(=O)O)[C@@H](C)O)[C@@H](C)O)C(C)C)C(=O)N[C@@H](C)C(=O)N[C@@H](Cc1c[nH]c2ccccc12)C(=O)N[C@@H](CC(C)C)C(=O)N[C@H](C(=O)N[C@@H](CCCCN)C(=O)NCC(=O)N[C@@H](CCCNC(=N)N)C(N)=O)C(C)C` (stereo partly drawn) [Compound 4984, (R,S)-1-[N^2-(1-carboxy-3-phenylpropyl)-L-ala]-L-pro-8-amino-3,6-dioxaoctanoyl-8-amino-3,6-dioxaoctanoyl-GLP-1-(7-36) amide], in that order: “enhance glucose-lowering action compared to GLP-1; also recorded: prolonged effect 4 hours after dosing” and greater than 80%.
As to `CC[C@H](C)[C@H](NC(=O)[C@H](Cc1ccccc1)NC(=O)[C@H](CC(C)C)NC(=O)[C@H](CCCNC(=N)N)NC(=O)[C@@H](NC(=O)[C@H](C)NC(=O)[C@H](CCC(=O)O)NC(=O)[C@H](CCC(=O)O)NC(=O)[C@H](CCC(=O)O)NC(=O)[C@H](CC(C)C)NC(=O)[C@H](CCC(N)=O)NC(=O)[C@H](CCCCN)NC(=O)[C@H](CO)NC(=O)[C@H](CC(C)C)NC(=O)[C@H](CC(=O)O)NC(=O)[C@H](CO)NC(=O)[C@@H](NC(=O)[C@H](Cc1ccccc1)NC(=O)[C@@H](NC(=O)CNC(=O)[C@H](CCC(=O)O)NC(=O)CNC(=O)[C@@H](N)Cc1c[nH]cn1)[C@@H](C)O)[C@@H](C)O)C(C)C)C(=O)N[C@@H](CCC(=O)O)C(=O)N[C@@H](Cc1c[nH]c2ccccc12)C(=O)N[C@@H](CC(C)C)C(=O)N[C@@H](CCCCN)C(=O)N[C@@H](CCC(N)=O)C(=O)NCC(=O)NCC(=O)N1CCC[C@H]1C(=O)N[C@@H](CO)C(=O)N[C@@H](CCCCN)C(=O)N[C@@H](CCC(=O)O)C(=O)N[C@H](C(=O)N[C@H](C(=O)N[C@@H](CO)C(=O)NCCOCCOCCOCC(=O)NCCOCCOCC(=O)NCCCC[C@H](NC(CCc1ccccc1)C(=O)O)C(=O)N1CCC[C@H]1C(=O)O)[C@@H](C)CC)[C@@H](C)CC` (stereo partly shown) [Compound 5715], in series [1], the “mean diastolic blood pressure at week 5” value is 112 mmHg, the “mean heart rate at week 5” value is reported as 381 and the “mean systolic blood pressure at week 5” value turned out to be 161 mmHg. In addition, on ACE from rabbit lung, the IC50 was determined as 260 nM.
Regarding “GLP-1(7-37)-GG-(S)-2,6-diamino-1-(thiazolidin-2-cyano-3-yl)hexan-1-one amide”, the not cleaved entry in the series on recombinant DPP-IV was “expected product ions were not observed; DPP-IV resistant under the test conditions”.
For the molecule “GLP-1(7-37)-GG-(S)-2,6-diamino-1-(thiazolidin-3-yl)hexan-1-one amide”, the not cleaved result in the series with recombinant DPP-IV is “expected product ions were not observed; DPP-IV resistant under the test conditions”.
